Assay results reported in paper PMC12382740, “In Vitro and In Vivo Characterization of Novel Cathelicidin-Based Peptides with Antimicrobial Activity Against Pseudomonas aeruginosa” (Antibiotics, 2025).
Read-outs that look alike come from different tables or passages of the source. Square brackets hold non-standard residues; d marks the D form. Peptide text beside a SMILES is read from it.

Tests used:
[1] = system: P. aeruginosa R2 and 121110 strains; assay: Transmission electron microscopy of treated bacteria; assay type: cell-based, Pseudomonas aeruginosa; conditions: 4 h incubation at 4× MIC
Description: Bacterial strains P. aeruginosa R2 and 121110 under treatment with CAP-18, CAP-18_31, D-CAP-18, and D-CAP-18_31 were chosen for TEM visualization. A total of 5 mL AST broth cultures were prepared in 50 mL Falcon tubes and inoculated with single colonies grown in Columbia Agar incubated at 37 °C. Liquid cultures were then diluted 1:100 in fresh AST broth and incubated at 37 °C until OD 0.6 was reached. Cultures were then centrifuged 10 min at 3000× g at 4 °C, and supernatant was discarded and replaced by fresh AST. […] Results from TKC assays were used as a guidance to choose peptide concentrations and incubation times for TEM sample visualization. After incubation, tubes were centrifuged thrice for 15′ at 5000× g and 4 °C, substituting supernatant after each centrifugation by adding 10 mL PBS 1× to the pellet and resuspending. Supernatant was discarded after the final centrifugation step. Pellet was fixed by adding 1 mL of 2.5% glutaraldehyde + 2% paraformaldehyde in PBS 0.1 M at pH 7.4, and centrifuged 10′ at 5000× g and 4 °C. Supernatant was discarded 30 min after centrifugation and pellet was washed twice with 1 mL of fresh fixing solution. Samples were stored 4 °C O/N and processed by the Electronic Microscopy Unit, Medicine Faculty, University of Barcelona. University of Barcelona Microscopy Facilities.

human erythrocytes = assay: Hemolysis assay; assay type: cell-based; conditions: for Hemolysis IC50: human erythrocytes, 4 h at 37 °C, value in brackets; for IC50: red cells of human, 4 h
Description: Commercially available human blood (IWB1K2E10ML, Innovative Research Inc., Novi, MI, USA) was used to produce a 50% haematocrit solution by mixing at 1:1 with PBS 1× (P5493, 1 L, Sigma, St. Louis, MO, USA). Three consecutive PBS 1× washes plus centrifugation at 2600 rpm for 10 min steps were performed. Finally, a 2% erythrocyte solution was prepared in PBS 1× and chilled on ice until used. Polypropylene plates were filled with 50 µL PBS 1× per well for the samples and 50 µL 2% Triton X-100 (TX-100, 9002-93-1, 100 mL, Sigma, St. Louis, MO, USA) for the hemolysis controls. A solution at 4× final concentration of the assay of each peptide was prepared in PBS and 50 µL were added to the first column of each plate, followed by serial dilutions in the microplate. Then, 50 µL of the 2% erythrocyte solution was added to each plate. […] controls consisted in a 1:1 mix of PBS 1× and erythrocytes at 2%. Plates were incubated at 37 °C for 4 h and then centrifuged at 1500 rpm for 5 min. Eighty µL were extracted from the supernatant of each well carefully and transferred to a polystyrene flat bottom plate for reading and read at 450 nm in an Epoch microplate spectrophotometer (Epoch™, BioTek, Winooski, VT, USA).
The therapeutic index is a widely accepted parameter to represent the specificity of antimicrobial peptides for prokaryotic versus eukaryotic cells. It is calculated by the ratio of HC50 (hemolytic activity) and MIC (antimicrobial activity); thus, larger values of therapeutic index indicate greater specificity for prokaryotic cells.

[2] = system: P. aeruginosa Strain ATCC 121110; assay type: cell-based, Pseudomonas aeruginosa
In short: (§1)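 Broth microdilution MIC based on CLSI guidance, peptides tested in AST broth in polypropylene round-bottom plates to limit peptide adsorption; colistin tested in cation-adjusted Mueller-Hinton broth per CLSI-EUCAST polymyxin recommendations with E. coli 13846 (mcr-1) and P. aeruginosa ATCC 27853 as QC. Three biological and technical replicates.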

[3] = system: P. aeruginosa Strain 121007; assay type: cell-based, Pseudomonas aeruginosa
In short: as §1

[4] = system: P. aeruginosa strain panel; assay type: cell-based, Pseudomonas aeruginosa
In short: as §1

HeLa cells = assay type: cell-based, human; conditions: 24 h
Description: (§2) Cell viability assays were performed against HeLa and A549 cells. Cells were seeded in Corning 96-well microplates at 2 × 10^3 cells/well and 5 × 10^3 cells/well and incubated for 24 h at 37 °C. Then, cells were treated with peptides dissolved in Dulbecco’s Modified Eagle’s Medium for 24 h; peptide concentration range 0.1–100 µM. The peptide solution was then removed, and fresh medium was added to the cells. Finally, 50 µL of activated-XTT solution was added and incubated for 4 h at 37 °C. A PowerWave X reader (BioTek, Winooski, VT, USA) was used to measure absorbance at 450 nm. Cell viability was calculated through the ratio of the absorbance of peptide-treated cells over the absorbance of untreated cells. Triplicates were run for each experiment.

A549 cells = assay type: cell-based, human; conditions: for IC50: 24 h; for A549 IC50: 24 h treatment, XTT, value in brackets
Description: as §2

[5] = Strain ATCC 121110, value in brackets
[6] = Strain 121007, value in brackets
[7] = panel of 15 P. aeruginosa strains
[8] = panel of 15 P. aeruginosa strains, value in brackets

CC[C@@H](C)[C@@H](NC(=O)[C@@H](CCCCN)NC(=O)[C@@H](CCCCN)NC(=O)[C@@H](CC(C)C)NC(=O)[C@@H](CCCCN)NC(=O)[C@@H](CCC(=O)O)NC(=O)[C@@H](CCCCN)NC(=O)[C@H](NC(=O)[C@@H](CCCCN)NC(=O)[C@@H](CC(N)=O)NC(=O)[C@@H](CCCNC(=N)N)NC(=O)[C@@H](Cc1ccccc1)NC(=O)[C@@H](CCCCN)NC(=O)[C@@H](CCCNC(=N)N)NC(=O)[C@@H](CC(C)C)NC(=O)[C@@H](CCCNC(=N)N)NC(=O)[C@@H](CCCCN)NC(=O)[C@@H](CCCNC(=N)N)NC(=O)[C@@H](CC(C)C)NC(=O)CN)[C@H](C)CC)C(=O)NCC(=O)N[C@H](CCC(N)=O)C(=O)N[C@H](CCCCN)C(=O)N[C@@H](C(=O)N[C@H](CCC(N)=O)C(=O)NCC(=O)N[C@H](CC(C)C)C(=O)N[C@H](CC(C)C)C(=O)N1CCC[C@@H]1C(=O)N[C@H](CCCCN)C(=O)N[C@H](CC(C)C)C(=O)O)[C@H](C)CC [D-CAP-18_31, Glrkrlrkfrnkikeklkkigqkiqgllpkl] (H-G[dL][dR][dK][dR][dL][dR][dK][dF][dR][dN][dK][dI][dK][dE][dK][dL][dK][dK][dI]G[dQ][dK][dI][dQ]G[dL][dL][dP][dK][dL]-OH)
effect on cell morphology (TEM) [1]: different stages of cellular damage | Hemolysis IC50 (human erythrocytes): 404.48 µg/mL | IC50 (human erythrocytes): 108 µM | MIC ([2]; Strain ATCC 121110): 0.25 µg/mL | MIC [2, 5]: 0.07 µM | MIC ([3]; Strain 121007): 2 µg/mL | MIC [3, 6]: 0.5 µM | MIC50 [4, 7]: 4 µg/mL | MIC90 [4, 7]: 16 µg/mL | MIC50 [4, 8]: 1.1 µM | MIC90 [4, 8]: 4.3 µM | MIC90 ([4]; strain panel): 16 µg/mL | IC50 (HeLa cells): 6.16 µM | IC50 (A549 cells): 12.3 µM | A549 IC50 (A549 cells): 45.94 µg/mL

H-GLRKRLRKFRNKIKEKLKKIGQKIQGLLPKL-OH [CAP-18_31]
effect on cell morphology (TEM) [1]: different stages of cellular damage | Hemolysis IC50 (human erythrocytes): 690.97 µg/mL | IC50 (human erythrocytes): 185 µM | MIC ([2]; Strain ATCC 121110): 0.5 µg/mL | MIC [2, 5]: 0.1 µM | MIC ([3]; Strain 121007): 8 µg/mL | MIC [3, 6]: 2.1 µM | MIC50 [4, 7]: 2 µg/mL | MIC90 [4, 7]: 16 µg/mL | MIC50 [4, 8]: 0.5 µM | MIC90 [4, 8]: 4.3 µM | MIC50 ([4]; strain panel): 2 µg/mL | IC50 (HeLa cells): 13.1 µM | IC50 (A549 cells): 1.31 µM | A549 IC50 (A549 cells): 4.89 µg/mL
